Patent US8901301B2, “Pyrrolo[2,3-]pyridine kinase inhibitors” (Plexxikon Inc., priority 2009, dated 2014)

Key:
SK-MEL-2 cells = experiment: Cell growth inhibition (Cell Titer Glo), SK-MEL-2; assay type: cell-based; details: Homo sapiens, SK-MEL-2, 72 h; wild-type B-RAF cell line, 3 days
Procedure: (§1) Compounds are assessed in a variety of cell based assays, employing cells with or without B-Raf V600E mutation, for example cell lines with B-Raf V600E mutation (A375 and COLO205), as well as tumorigenic cell lines with wild-type B-RAF (SW620 and SK-MEL-2). Reagent and assay conditions are as follows:
(§2) SK-MEL-2 cells growth medium: • Minimum Eagle essential medium, 2 mM L-glutamine, 1.5 g/L sodium bicarbonate, 0.1 mM non-essential amino acids, 1.0 mM sodium pyruvate, 10% fetal bovine serum. • On day 1, cells are seeded in growth media in 200 μL per well in a 96-well polystyrene tissue culture plate at 2,000 cells per well (A375, COLO205, SK-MEL-2) or 5,000 cells per well for SW620, and incubated at 37° C. and 5% CO2 overnight. • On day 2, compound at 4 mM in dimethyl sulfoxide is serially diluted 1:4 (10 μL with 30 μL dimethyl sulfoxide) seven times for a total of 8 concentration points. For each dilution point a 1 μL aliquot is added to a well containing cells (highest dilution point at 20 μM), with 1 μL of dimethyl sulfoxide as a negative control (each sample at 0.5% dimethyl sulfoxide). The cells are incubated for 3 days at 37° C. in 5% CO2. • On day 5, Cell Titer Glo (Promega) is thawed and added 100 μL to each well and the plate shaken for 1-2 minutes. The plates are incubated for 10 minutes at room temperature, then […] signal is read (e.g. on Safire reader). The measured fluoresence correlates directly with cell number, such that the reading as a function of compound concentration is used to determine the IC50 value.

COLO205 cells = experiment: Cell growth inhibition (Cell Titer Glo), COLO205; assay type: cell-based; details: Homo sapiens, COLO 205, 72 h; B-Raf V600E cell line, 3 days
Procedure: as §1
COLO205 cells growth medium: • RPMI 1640, 2 mM L-glutamine, 1.5 g/L sodium bicarbonate, 4.5 g/L D-glucose, 10 mM HEPES, 1.0 mM sodium pyruvate, 10% fetal bovine serum.
as §2

Kdr = Kdr (Homo sapiens, UniProt P35968); experiment: Biochemical inhibitory activity, other protein kinases: Kdr; details: for Kinase having IC50 of >1 μM: listing of the kinase means IC50 >1 μM
Kdr, sequence (P35968 20-1356, species assumed): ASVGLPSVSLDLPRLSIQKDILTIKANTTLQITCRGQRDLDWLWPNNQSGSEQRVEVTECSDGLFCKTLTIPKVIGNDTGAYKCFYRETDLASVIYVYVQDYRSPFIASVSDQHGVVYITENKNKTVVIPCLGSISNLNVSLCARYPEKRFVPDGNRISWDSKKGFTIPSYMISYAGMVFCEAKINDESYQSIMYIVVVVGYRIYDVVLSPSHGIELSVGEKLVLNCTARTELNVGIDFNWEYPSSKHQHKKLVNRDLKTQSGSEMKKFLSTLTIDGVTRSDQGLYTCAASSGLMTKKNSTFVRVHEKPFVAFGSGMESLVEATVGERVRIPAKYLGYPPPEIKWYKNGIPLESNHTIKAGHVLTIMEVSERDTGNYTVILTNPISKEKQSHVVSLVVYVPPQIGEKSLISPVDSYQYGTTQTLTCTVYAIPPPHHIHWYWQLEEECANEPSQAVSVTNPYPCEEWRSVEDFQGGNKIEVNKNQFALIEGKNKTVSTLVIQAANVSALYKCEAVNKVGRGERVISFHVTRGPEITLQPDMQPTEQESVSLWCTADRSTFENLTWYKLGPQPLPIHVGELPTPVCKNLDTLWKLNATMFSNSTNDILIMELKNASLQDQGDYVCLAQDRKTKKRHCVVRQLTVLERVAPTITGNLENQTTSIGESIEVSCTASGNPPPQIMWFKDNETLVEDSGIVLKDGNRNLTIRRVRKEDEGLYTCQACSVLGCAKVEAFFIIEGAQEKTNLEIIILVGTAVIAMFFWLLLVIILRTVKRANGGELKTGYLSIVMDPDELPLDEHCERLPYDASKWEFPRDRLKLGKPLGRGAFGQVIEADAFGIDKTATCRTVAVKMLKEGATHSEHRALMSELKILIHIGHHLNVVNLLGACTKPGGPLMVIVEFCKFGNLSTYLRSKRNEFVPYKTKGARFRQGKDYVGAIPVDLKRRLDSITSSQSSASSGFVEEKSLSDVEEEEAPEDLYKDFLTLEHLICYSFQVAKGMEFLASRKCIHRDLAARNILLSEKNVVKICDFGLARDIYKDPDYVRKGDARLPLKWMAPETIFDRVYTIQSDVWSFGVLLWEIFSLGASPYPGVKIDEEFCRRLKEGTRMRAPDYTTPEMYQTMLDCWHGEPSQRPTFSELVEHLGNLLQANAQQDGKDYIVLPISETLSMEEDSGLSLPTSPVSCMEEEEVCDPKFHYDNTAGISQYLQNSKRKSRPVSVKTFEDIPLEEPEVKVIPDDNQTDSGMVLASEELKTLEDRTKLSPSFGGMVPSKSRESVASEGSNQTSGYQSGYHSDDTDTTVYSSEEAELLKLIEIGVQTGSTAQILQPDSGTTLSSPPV

CYP1A2 = biological target: T1, CYP1A2 (Homo sapiens, UniProt P05177); experiment: CYP inhibition (fluorescent substrate), CYP1A2; assay type: in vitro ADME; details: substrate CEC; read-out: Cyp IC50 (μM) 1A2
T1 construct: purchased BD Biosciences
T1 sequence (P05177 1-516): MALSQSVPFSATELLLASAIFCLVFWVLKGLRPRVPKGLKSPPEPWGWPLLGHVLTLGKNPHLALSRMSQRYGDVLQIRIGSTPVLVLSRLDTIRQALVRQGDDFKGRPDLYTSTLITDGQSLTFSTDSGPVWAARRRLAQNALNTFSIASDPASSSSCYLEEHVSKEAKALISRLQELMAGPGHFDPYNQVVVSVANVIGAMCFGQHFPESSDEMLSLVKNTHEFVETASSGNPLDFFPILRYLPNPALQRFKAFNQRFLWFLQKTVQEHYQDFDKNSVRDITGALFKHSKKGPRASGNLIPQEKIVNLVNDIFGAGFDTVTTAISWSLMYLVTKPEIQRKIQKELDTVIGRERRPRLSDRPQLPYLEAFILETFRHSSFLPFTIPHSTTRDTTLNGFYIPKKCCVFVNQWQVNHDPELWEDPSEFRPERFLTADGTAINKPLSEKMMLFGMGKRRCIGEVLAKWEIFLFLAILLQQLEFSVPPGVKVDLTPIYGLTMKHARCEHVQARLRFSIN
Procedure: CYP (Cytochrome P450) enzymes are the major drug metabolizing enzymes present in the liver. The inhibition of CYP enzyme activity (IC50) for each of CYP1A2, CYP2C19, CYP2C9, CYP2D6, CYP3A4(BFC) and CYP3A4(BQ) is determined for compounds, where inhibition of metabolism of a known substrate leads to a decrease in the fluorescence of the metabolized product. The fluorescence of the product is monitored as a function of compound concentration. Compounds are dissolved in dimethyl sulfoxide to a concentration of 100 mM. These are diluted 1 μL into 82 μL of acetonitrile. An 11 μL aliquot of this solution is then added to 204 μL of cofactor mix (1.3% NADPH Regeneration system Solution A, 1.04% NADPH Regeneration system Solution B from BD Biosciences, 5% acetonitrile and 0.05% dimethyl sulfoxide). These are then serially diluted 1:1 (160 μL to 160 μL co-factor mix) for a total of 10 points. A 10 μL aliquot of this final mixture is dispensed into 384 well assay plates and incubated for 10 minutes at 37° C. […] Assay plates are incubated at 37° C. (CYP1A2-15 min; CYP2C9-45 min; CYP2C19, 2D6 and 3A4-30 min) and read in a Tecan Safire 2 plate reader (CYP1A2, 2C19 and 3A4 409 ex/460 em; CYP2C9 and 2D6 409 ex/530 em). The signal versus compound concentration is used to determine the IC50. The enzymes and substrates for this assay are obtained from BD Biosciences.

[1] = system: Colo205 colorectal tumor cells with BRaf V600E mutation; experiment: Colo205 xenograft mouse model; assay type: in vivo; details: female nu/nu mice, 10 mg/kg daily for fourteen days, vs vehicle control
Procedure: Female nu/nu mice are implanted with Colo-205 trocar fragments from donor mice, sub-cutaneous and high in the axilla. Tumor growth is monitored to approximately 100 mg size, and mice are distributed to treatment groups such that the mean tumor burden within a group is within 10% of the overall mean tumor burden. Mice are treated with vehicle control, positive control or compound (8 mice per group) in 5% DMSO and 95% CMC (1%), with compound dosed at 10 mg/kg daily for fourteen days. Mice are observed daily, with tumor burden and body weights measured twice a week. Animals with tumor burden above 1500-2000 mg and any animals in moribund condition are euthanized. The average tumor growth of vehicle control group mice is compared to the average tumor growth of the test compound mice. Percent tumor growth inhibition is calculated as 100×[(tumor growth control-tumor growth test compound)/tumor growth control].

IC50 (SK-MEL-2 cells) [µM]	IC50 (COLO205 cells) [µM]	Kinase having IC50 of >1 μM (Kdr)	IC50 (CYP1A2) [µM]	Kinase having IC50 of <1 μM (Kdr; listing of the kinase means IC50 <1 μM)	SMILES	% Tumor growth inhibition [1] [%]
> 5	< 1	Kdr	> 10		CCCS(=O)(=O)Nc1ccc(F)c(C(=O)c2c[nH]c3ncc(-c4cnc(OC)nc4)cc23)c1F [Compound P-0001, propane-1-sulfonic acid {2,4-difluoro-3-[5-(2-methoxy-pyrimidin-5-yl)-1H-pyrrolo[2,3-b]pyridine-3-carbonyl]-phenyl}-amide]	43
> 20	< 2	Kdr	> 10		CCCS(=O)(=O)Nc1cccc(C(=O)c2c[nH]c3ncc(C#N)cc23)c1F [Compound P-0003, propane-1-sulfonic acid [3-(5-cyano-1H-pyrrolo[2,3-b]pyridine-3-carbonyl)-2-fluoro-phenyl]-amide]	91
> 20	< 1		> 10	Kdr	N#Cc1cnc2[nH]cc(C(=O)c3c(F)ccc(NS(=O)(=O)c4cc(F)ccc4F)c3F)c2c1 [Compound P-0004, N-[3-(5-cyano-1H-pyrrolo[2,3-b]pyridine-3-carbonyl)-2,4-difluoro-phenyl]-2,5-difluoro-benzenesulfonamide]	103
	< 1	Kdr	> 10		N#Cc1cnc2[nH]cc(C(=O)c3c(F)ccc(NS(=O)(=O)N4CCCC4)c3F)c2c1 [Compound P-0006, pyrrolidine-1-sulfonic acid [3-(5-cyano-1H-pyrrolo[2,3-b]pyridine-3-carbonyl)-2,4-difluoro-phenyl]-amide]	82

The remaining lines, values behind:

SMILES	IC50 (SK-MEL-2 cells) [µM]	IC50 (COLO205 cells) [µM]	Kinase having IC50 of >1 μM (Kdr)	IC50 (CYP1A2) [µM]	Kinase having IC50 of <1 μM (Kdr; listing of the kinase means IC50 <1 μM)	% Tumor growth inhibition [1] [%]
CCCS(=O)(=O)Nc1ccc(F)c(C(=O)c2c[nH]c3ncc(C#N)cc23)c1F [Compound P-0002, propane-1-sulfonic acid [3-(5-cyano-1H-pyrrolo[2,3-b]pyridine-3-carbonyl)-2,4-difluoro-phenyl]-amide]	> 20	< 1	Kdr	> 10		80
N#Cc1cnc2[nH]cc(C(=O)c3c(F)ccc(NS(=O)(=O)c4cccc(F)c4)c3F)c2c1 [Compound P-0005, N-[3-(5-cyano-1H-pyrrolo[2,3-b]pyridine-3-carbonyl)-2,4-difluoro-phenyl]-3-fluoro-benzenesulfonamide]	> 20	< 1	Kdr	> 10		88
CN(C)S(=O)(=O)Nc1ccc(F)c(C(=O)c2c[nH]c3ncc(C#N)cc23)c1F [Compound P-0007, N,N-dimethylamino-sulfonic acid [3-(5-cyano-1H-pyrrolo[2,3-b]pyridine-3-carbonyl)-2,4-difluoro-phenyl]-amide]	> 20	< 3	Kdr	> 10		86
